Earlier results as cited in patent US6310180A, “Method for synthesis of proteins” (Vanderbilt University, priority 1995, dated 2001).
Square brackets hold non-standard residues; d marks the D form. Peptide text beside a SMILES is read from it. Sta = CC(C)C[C@H](N)[C@@H](O)CC(=O)O

Biological target: HIV-1 protease (Human immunodeficiency virus type 1 group M subtype B, UniProt P03369)
Conditions: aspartic protease inhibitor "has been shown to inhibit the HIV-1 protease"; added to the ligation solution to prevent autoproteolysis

CC(=O)N[C@H](C(=O)N[C@H](C(=O)N[C@@H](CC(C)C)[C@@H](O)CC(=O)N[C@@H](C)C(=O)N[C@@H](CC(C)C)[C@@H](O)CC(=O)O)C(C)C)C(C)C [acetyl-pepstatin] (Ac-VV[Sta]A[Sta]-OH)
Ki: 20 mM
